# US5068247A, “2-aminopentanoic acid compounds and their use as immunosuppressants” (priority 1989, dated 1991)
# Columns and labels:
# [1] = cytotoxicity to cultured tumor cell line HL60; settings: human, hl60 cells, Suppression
# Protocol: (§1) Cytotoxicity to various human tumor cell lines was examined as follows:
# (§2) Cells of human cell lines, K562, MOLT4, U937 and HL60 were respectively suspended to the concentration of 4×10^5 cells/ml in the RPMI1640 culture medium supplemented with 20% FCS. Fifty μl of each suspension was added to each well of a 96-well microtest plate to which 50 μl of the test solution had been added. After culturing the suspension at 37° C. in an atmosphere of 5% carbon dioxide for 72 hours, the absorbancy at 570 nm was measured in the same way as with the colorimetry using MTT in Experiment Example 1, and the percent suppression was calculated by the following formula, which was used as an index of cytotoxicity.
# HL60 = assay: cytotoxicity to cultured tumor cell line HL60
# Protocol: as §1, §2
# [2] = cytotoxicity to cultured tumor cell line K562; settings: human, k562 cells, Suppression
# Protocol: as §1, §2
# K562 = assay: cytotoxicity to cultured tumor cell line K562
# Protocol: as §1, §2
# [3] = cytotoxicity to cultured tumor cell line MOLT4; assay type: cell-based, human; settings: human, molt4 cells, read-out: Suppression
# Protocol: as §1, §2
# MOLT4 = assay: cytotoxicity to cultured tumor cell line MOLT4; assay type: cell-based, human
# Protocol: as §1, §2
# U937 = assay: cytotoxicity to cultured tumor cell line U937; assay type: cell-based, human
# Protocol: as §1, §2
# [4] = cytotoxicity to cultured tumor cell line U937; assay type: cell-based, human; settings: human, u937 cells; 0.1 μg/ml; read-out: Suppression
# Protocol: as §1, §2
# [5] = tested on: mouse allogenic MLR (BALB/c mouse spleen cells stimulated with C57BL/6 mouse spleen cells); assay: mouse allogenic mixed lymphocyte reaction (MLR), 3H-thymidine uptake; assay type: cell-based
# Protocol: The immunosuppressive activity of the compounds was assayed on the basis of mouse allogenic mixed lymphocyte reaction (hereinafter sometimes abbreviated as MLR). Mouse allogenic MRL was carried out using a mixed culture of BALB/c mouse (H-2^d) spleen cells as the responder cells and mitomycin C-treated C57BL/6 ([…]) mouse spleen cells as the stimulator cells in equal amounts.
# The responder cells were prepared as follows:
# The spleen was resected from 5- to 6-week-old BALB/c mice, and single cell suspension of spleen cells was prepared by using the RPMI1640 culture medium (containing 60 μg/ml of kanamycin sulfate, 2 mM of L-glutamine, 10 mM of N-2-hydroxyethylpiperazine-N'-2-ethanesulphonate (HEPES) and 0.1% sodium hydrogencarbonate) to which heat-inactivated fetal calf serum (hereinafter sometimes abbreviated as FCS) had been added to 5%. After hemolytic treatment, the cell suspension was adjusted to a concentration of 10^7 cells/ml with the RPMI1640 culture medium supplemented with 10^-4 M 2-mercapto-ethanol and 20% FCS, and was used as the responder cell suspension.
# The stimulator cells were prepared as follows: The spleen was resected from 5- to 6-week-old male C57BL/6 mice, and a single cell suspension of spleen cells was prepared by using the RPMI1640 culture medium. After hemolytic treatment, the cells were treated with 40 μg/ml of mitomycin C at 37° C. for 60 minutes. After washing three times, the cell suspension was adjusted to a concentration of 10^7 cells/ml with the RPMI1640 culture medium supplemented with 10^-4 M 2-mercapto-ethanol and 20% FCS, and was used as the stimulator cell suspension.
# The blastogenesis of lymphocytes was assayed using ^3 H-thymidine uptake as an index. That is, after termination of culture, 18.5 KBq/well of ^3 H-thymidine was added thereto and the suspension was cultured for 4 hours. Cells were harvested by a cell-harvester, and the radioactivity incorporated into the cells was determined by a liquid scintillation counter, which was used as an index of blastogenesis of lymphocytes in the mouse allogenic MLR. The suppression of the mouse allogenic MLR was evaluated by calculating the percent suppression by the following formula.
# The test substance dissolved in methanol was diluted with the RPMI1640 culture medium and put to use.
smiles,measurement,setting,value
CCCCCCC(CCCCCC/C=C/C[C@@H](O)[C@H](O)[C@@](N)(CO)C(=O)O)=NO [Example 4],cytotoxicity at 72 h,[1]; 0.1 μg/ml,6%
same,cytotoxicity at 72 h,[1]; 1 μg/ml,0%
same,cytotoxicity at 72 h,[1]; 10 μg/ml,8.2%
same,Absorbancy,HL60; 0.1 μg/ml,1.401 ± 0.028
same,Absorbancy,HL60; 1 μg/ml,1.493 ± 0.031
same,Absorbancy,HL60; 10 μg/ml,1.368 ± 0.087
same,cytotoxicity at 72 h,[2]; 0.1 μg/ml,0%
same,cytotoxicity at 72 h,[2]; 1 μg/ml,0.6%
same,cytotoxicity at 72 h,[2]; 10 μg/ml,0%
same,Absorbancy,K562; 0.1 μg/ml,1.145 ± 0.038
same,Absorbancy,K562; 1 μg/ml,1.129 ± 0.021
same,Absorbancy,K562; 10 μg/ml,1.148 ± 0.032
same,cytotoxicity at 72 h,[3]; 0.1 μg/ml,11%
same,cytotoxicity at 72 h,[3]; 1 μg/ml,10.1%
same,cytotoxicity at 72 h,[3]; 10 μg/ml,12.1%
same,Absorbancy,MOLT4; 0.1 μg/ml,1.026 ± 0.026
same,Absorbancy,MOLT4; 1 μg/ml,1.037 ± 0.027
same,Absorbancy,MOLT4; 10 μg/ml,1.014 ± 0.055
same,Absorbancy,U937; 0.1 μg/ml,0.765 ± 0.033
same,Absorbancy,U937; 1 μg/ml,0.744 ± 0.017
same,Absorbancy,U937; 10 μg/ml,0.750 ± 0.048
same,cytotoxicity at 72 h,[4],0%
same,3H-thymidine uptake,"[5]; 0.0001 μg/ml, Table 1A",16905 cpm
same,3H-thymidine uptake,"[5]; 0.001 μg/ml, Table 1A",15970 cpm
same,3H-thymidine uptake,"[5]; 0.01 μg/ml, Table 1A",15399 cpm
same,3H-thymidine uptake,"[5]; 0.1 μg/ml, Table 1A",1637 cpm
same,3H-thymidine uptake,"[5]; 1 μg/ml, Table 1A",1477 cpm
same,inhibition at 0.0001 µg/mL,"[5]; Mus musculus, Lymphocyte, 0.0001 μg/ml, Table 1A, read-out: Suppression",9.1%
same,inhibition at 0.001 µg/mL,"[5]; Mus musculus, Lymphocyte, 0.001 μg/ml, Table 1A, read-out: Suppression",14.7%
same,inhibition at 0.01 µg/mL,"[5]; Mus musculus, Lymphocyte, 0.01 μg/ml, Table 1A, read-out: Suppression",18.1%
same,inhibition at 0.1 µg/mL,"[5]; Mus musculus, Lymphocyte, 0.1 μg/ml, Table 1A, read-out: Suppression",99.9%
same,inhibition at 1 µg/mL,"[5]; Mus musculus, Lymphocyte, 1 μg/ml, Table 1A, read-out: Suppression",100%
same,IC50,"[5]; Mus musculus, Lymphocyte, read-out: 50%-inhibition concentration (IC50) in mouse allogenic MLR",0.025 µg/mL
